This series in a line: Human HepG2 cell viability assay in 384 well format. Type of series: toxicity, cell-based. Particulars: HepG2 cells, read-out: Inhibition. The arrangement: dose 125 nL, time 70.5 hour; cytotoxicity at 70.5 h: concentration not given beside the values.

Structures are written as SMILES.

With `Cc1nc(C)n(C2CCCN(C(=O)Cc3ccc4c(c3)CCC4)C2)n1` (stereo unspecified), the cytotoxicity at 70.5 h was -3.72%.

With `CC(C)OCCCNC(=O)c1cccnc1N1CCOCC1`, the cytotoxicity at 70.5 h was determined as 39.8%.

As for `CNc1cc(N2CCCC2CNCc2ccco2)ncn1` (stereo unspecified), the cytotoxicity at 70.5 h was -1.02%.

As to `Cc1cc(C)n(CC2CN(Cc3cccnc3)CCO2)n1` (stereo unspecified), the cytotoxicity at 70.5 h worked out at 3.35%.

`CCn1ccnc1CN1CCN(CCc2ccccn2)CC1C` (stereo unspecified): the cytotoxicity at 70.5 h is -3.46%.

With `Cc1nn(C)c(C)c1CC(=O)N1CCCC1Cn1cccn1` (stereo unspecified), the cytotoxicity at 70.5 h is -5%.

Turning to `Cc1nc(C)n(C2CCCN(C(=O)CCc3cn(C)nc3C)C2)n1` (stereo unspecified), the cytotoxicity at 70.5 h was -0.365%.

Take `Cc1cc(C)n(C2CCCN(C(=O)c3ccc(F)c(F)c3)C2)n1` (stereo unspecified): the cytotoxicity at 70.5 h amounted to 9.19%.

As to `CSCCC(=O)N1CCCC1c1nnc2n1CCCCC2` (stereo unspecified), the cytotoxicity at 70.5 h was -3.4%.

For the compound `O=C(CN1CCCC(CO)C1)NCCOc1cccc(Cl)c1` (stereo unspecified), the cytotoxicity at 70.5 h was determined as 27.5%.

On to `O=C(NCCSCc1ccc(Br)s1)C1CCCN(C(=O)c2cccs2)C1` (stereo unspecified), for which the cytotoxicity at 70.5 h is -8.75%.

On to `CCCc1nc(C)c(C(=O)NCC2CCN(C3CC3)C2)s1` (stereo unspecified), for which the cytotoxicity at 70.5 h was 23.6%.

Consider `Cc1sc2nc(C(F)(F)F)nc(N3CCC(NS(C)(=O)=O)CC3)c2c1C`, for which the cytotoxicity at 70.5 h was -5.38%.

Take `CC(=O)N1CCN(c2nc(C(F)(F)F)nc3sc(C)c(C)c23)CC1`: the cytotoxicity at 70.5 h is -9.75%.

As to `O=C(c1c[nH]c(=O)[nH]1)N1CCc2ccccc21`, the cytotoxicity at 70.5 h is -4.03%.

Take `CC(NCc1cccnc1)c1cc2c(cc1Br)OCCO2` (stereo unspecified): the cytotoxicity at 70.5 h was -6.12%.

Regarding `Cc1ccc(CN2CCOCC2)cc1NC(=O)c1ccsc1`, the cytotoxicity at 70.5 h is -9.12%.

Regarding `N#Cc1cccc(C(=O)NS(=O)(=O)c2ccc(C#N)c(Cl)c2)c1`, the cytotoxicity at 70.5 h was 27.3%.

`COc1ccsc1C(=O)Nc1cc(CN2CCOCC2)ccc1C`: the cytotoxicity at 70.5 h amounted to 0.784%.

Consider `Clc1ccc(NCc2nnc(C3CC3)o2)cc1Cl`, for which the cytotoxicity at 70.5 h was 24.8%.

In the case of `CC(C)(C)c1noc(CNc2ccccc2N2CCC(O)CC2)n1`, the cytotoxicity at 70.5 h is -8.28%.

For the compound `O=C(NS(=O)(=O)c1ccc(F)cc1)C1CCOc2ccccc21` (stereo unspecified), the cytotoxicity at 70.5 h is -3.97%.

Turning to `FC(F)(F)Sc1ccc(NCc2nnc(C3CC3)o2)cc1`, the cytotoxicity at 70.5 h was 1.88%.

Turning to `COc1ccnc(NC(=O)c2ccsc2)c1`, the cytotoxicity at 70.5 h was -10.1%.

With `COCCCN(Cc1ccncc1)C(=O)CSc1ccc(F)cc1`, the cytotoxicity at 70.5 h was -5.19%.

Take `CCOC(C)c1noc(CN2CCN(CC3CCCC3)CC2)n1` (stereo unspecified): the cytotoxicity at 70.5 h is -6.48%.

Consider `CCOC(C)c1noc(CN2CCN(c3nnc(C)s3)CC2)n1` (stereo unspecified), for which the cytotoxicity at 70.5 h was -4.45%.

`O=C(O)[C@H]1CCCN1CCOc1cccc(Cl)c1`: the cytotoxicity at 70.5 h was -5.33%.

As to `CCOC(C)c1noc(CN2CCNCC2)n1` (stereo unspecified), the cytotoxicity at 70.5 h worked out at 13.6%.

With `COC(C)c1noc(CN2CCCNCC2)n1` (stereo unspecified), the cytotoxicity at 70.5 h was -10%.

With `O=C(Cc1cccc(Cl)c1)Nc1cnccc1SCCCO`, the cytotoxicity at 70.5 h is -6.16%.

For the compound `CC(NCCN1CCN(C(=O)C2CCCC2)CC1)c1cnn(C)c1` (stereo unspecified), the cytotoxicity at 70.5 h is 5.6%.

Take `Cc1ccc(C)c(CC(=O)Nc2cnccc2SCCCO)c1`: the cytotoxicity at 70.5 h was found to be 23.5%.

Consider `C=C(C)CN(CC)S(=O)(=O)c1ccccc1C#N`, for which the cytotoxicity at 70.5 h is -7.47%.

On to `CCN(CC(=O)NC)C(=O)c1cc(-c2cccc(Cl)c2)no1`, for which the cytotoxicity at 70.5 h is -2.85%.

Take `Cc1cccc(N(C)Cc2nc3c(cnn3C)c(=O)[nH]2)c1C`: the cytotoxicity at 70.5 h was -10%.

`CCN(Cc1nc2c(cnn2C)c(=O)[nH]1)c1ccccc1C`: the cytotoxicity at 70.5 h is -11.2%.

In the case of `O=C(c1ccc(=O)[nH]n1)N1CCCC1CCc1ccccc1` (stereo unspecified), the cytotoxicity at 70.5 h was -11.9%.

As for `CCOC(=O)c1ccc(Nc2ccc(OC)c(N3CCCC3=O)c2)nc1`, the cytotoxicity at 70.5 h was -14.4%.

In the case of `CCN(Cc1nc2c(cnn2C)c(=O)[nH]1)c1cc(C)ccc1C`, the cytotoxicity at 70.5 h was -15.9%.

As to `O=C(C1CCCN1c1ncnc2ccsc12)N1CCSCC1` (stereo unspecified), the cytotoxicity at 70.5 h is -9.24%.

The record behind these values is ChEMBL document CHEMBL3507680, “University of Dundee, Gates Library screen for HepG2 cell viability”.
